This assay deals with memapsin 2 (Homo sapiens, UniProt P56817). Put plainly: Inhibition of memapsin 2 beta-secretase activity (fluorogenic substrate FS-2). Format: biochemical. The settings on record: memapsin 2, pH 4, 37° C., read-out: M2Ki. On the procedure:
Potency of compounds were determined by measurement of their inhibition of memapsin 2 activity toward a fluorescent substrate. Kinetic inhibition experiments were performed using the procedure as described in Ermolieff, et al. (Biochemistry 39:12450-12456 (2000), the teachings of which are incorporated hereby in their entirety). Briefly, assays were performed at pH 4, 37° C., by pre-incubation of memapsin 2 enzyme with compound for 20 minutes. Activity measurements were initiated by addition of a fluorogenic substrate FS-2 (Bachem Americas, Torrance, Calif.) MCA-SEVNLDAEFR-DNP (SEQ ID NO.: 2). The substrate was derived from 10 amino acids of the human amyloid precursor protein (APP), with the Swedish variant amino acids at the beta-secretase cleavage site. The terminal amino acid was modified from arginine to lysine to facilitate derivatization with a functional group for detection by autofluorescence. The amino acid sequence of the “core” peptide of the substrate is SEVNLDAEFK (SEQ ID NO.: 3). The amino terminus was derivatized with (7-methoxycoumarin-4-yl)acetyl (MCA), and the epsilon amine of the lysine side chain of the terminal residue (K in sequence SEVNLDAEFK (SEQ ID NO.: 3)) was derivatized with 2,4-dinitorphenyl (DNP).
Fluorescent signal increase over time was measured as a rate of hydrolysis of the peptide substrate. Inhibition of hydrolytic rate was expressed relative to uninhibited controls and fit to a model for tight-binding inhibitors (J. Bieth, in “Proteinase Inhibitors,” Bayer Symposium V, 463-469, 1974, which is herein incorporated by reference for all purposes in its entirety).

Read-outs that look alike come from different tables or passages of the source. Some results are limits rather than exact numbers.

Consider 22 molecules from patent publication US20100286145A1, “ISOPHTHALAMIDE DERIVATIVES INHIBITING BETA-SECRETASE ACTIVITY” (CoMentis, Inc., priority 2007, published 2010).

Chain of memapsin 2 (P56817 46-501): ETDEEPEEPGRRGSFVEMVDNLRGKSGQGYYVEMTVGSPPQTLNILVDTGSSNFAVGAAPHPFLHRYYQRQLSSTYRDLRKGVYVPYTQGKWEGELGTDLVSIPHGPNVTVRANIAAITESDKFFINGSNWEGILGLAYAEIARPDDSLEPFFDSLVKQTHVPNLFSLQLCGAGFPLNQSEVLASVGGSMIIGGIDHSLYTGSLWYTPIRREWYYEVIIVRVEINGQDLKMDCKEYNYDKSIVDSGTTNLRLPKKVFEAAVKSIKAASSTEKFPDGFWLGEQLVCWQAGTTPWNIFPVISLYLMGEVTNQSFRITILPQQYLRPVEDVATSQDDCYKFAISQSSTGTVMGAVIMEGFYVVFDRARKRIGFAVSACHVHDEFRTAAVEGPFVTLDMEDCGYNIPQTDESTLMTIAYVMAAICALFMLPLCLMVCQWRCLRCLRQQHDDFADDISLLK

For `C=C(C)c1cncc(C(=O)NC[C@@H](O)[C@H](Cc2ccccc2)NC(=O)c2cccc(C(=O)N(C)Cc3nc(C)cs3)c2)c1` [Compound 288, N1-((2S,3R)-3-hydroxy-1-phenyl-4-(5-(prop-1-en-2-yl)nicotinamido)butan-2-yl)-N3-methyl-N3-((4-methylthiazol-2-yl)methyl)isophthalamide], the Ki (fluorogenic substrate FS-2) was more than 0.501 µM.
As for `COc1cccc(CNC[C@@H](O)[C@H](Cc2ccccc2)NC(=O)c2cc(OC)cc(C(=O)N(CCO)Cc3nc(C)cs3)c2)c1` [Compound 57, N1-((2S,3R)-3-hydroxy-4-(3-methoxybenzylamino)-1-phenylbutan-2-yl)-N3-(2-hydroxyethyl)-5-methoxy-N3-((4-methylthiazol-2-yl)methyl)isophthalamide], the Ki (20 minutes pre-incubation) is less than 0.3 µM.
`Cc1csc(CN(C)C(=O)c2cc(C(=O)N[C@@H](Cc3ccccc3)[C@H](O)CNCc3cccc(C(F)(F)F)c3)cc(-c3cccc(N(C)C(=O)OC(C)(C)C)c3)c2)n1` [Compound 317, tert-butyl 3′-((2S,3R)-3-hydroxy-1-phenyl-4-(3-(trifluoromethyl)benzylamino)butan-2-ylcarbamoyl)-5′-(methyl((4-methylthiazol-2-yl)methyl)carbamoyl)biphenyl-3-yl(methyl)carbamate]: the Ki (fluorogenic substrate FS-2) is less than 0.3 µM.
On the same count and under the same terms, then `Cc1csc(CN(C)C(=O)c2cc(C(=O)N[C@@H](Cc3ccccc3)[C@H](O)CNCc3cncc(C(C)C)c3)cc(-c3cn[nH]c3)c2)n1` [Compound 295, N1-((2S,3R)-3-hydroxy-4-((5-isopropylpyridin-3-yl)methylamino)-1-phenylbutan-2-yl)-N3-methyl-N3-((4-methylthiazol-2-yl)methyl)-5-(1H-pyrazol-4-yl)isophthalamide], with less than 0.3 µM.
Turning to `COCCn1ncc(CNC[C@@H](O)[C@H](Cc2ccccc2)NC(=O)c2cc(C(=O)N[C@H](C)c3ccccc3)cc(N(C)S(C)(=O)=O)c2)c1C` [Compound 131, N1-((2S,3R)-3-hydroxy-4-((1-(2-methoxyethyl)-5-methyl-1H-pyrazol-4-yl)methylamino)-1-phenylbutan-2-yl)-5-(N-methylmethylsulfonamido)-N3-((R)-1-phenylethyl)isophthalamide], the Ki (20 minutes pre-incubation) was less than 0.3 µM.
Still for that read-out and setting: the value for `COC(=O)c1coc(-c2cc(C(=O)N[C@@H](Cc3ccccc3)[C@H](O)CNCc3cccc(OC)c3)cc(C(=O)N(C)Cc3nc(C)cs3)c2)n1` [Compound 66, methyl 2-(3-((2S,3R)-3-hydroxy-4-(3-methoxybenzylamino)-1-phenylbutan-2-ylcarbamoyl)-5-(methyl((4-methylthiazol-2-yl)methyl)carbamoyl)phenyl)oxazole-4-carboxylate] was more than 0.501 µM.
`COc1cccc([C@H](C)NC[C@@H](O)[C@H](Cc2ccccc2)NC(=O)c2cc(C(=O)N(C)Cc3nc(C)cs3)cc(-c3ncco3)c2)c1` [Compound 292, N1-((2S,3R)-3-hydroxy-4-((S)-1-(3-methoxyphenyl)ethylamino)-1-phenylbutan-2-yl)-N3-methyl-N3-((4-methylthiazol-2-yl)methyl)-5-(oxazol-2-yl)isophthalamide]: where the note is “fluorogenic substrate FS-2”, the Ki is less than 0.3 µM.
On the same count and under the same terms, then `Cc1csc(CN(C)C(=O)c2cccc(C(=O)N[C@@H](Cc3ccccc3)[C@H](O)CNCc3cnn(C)c3)c2)n1` [Compound 287, N1-((2S,3R)-3-hydroxy-4-((1-methyl-1H-pyrazol-4-yl)methylamino)-1-phenylbutan-2-yl)-N3-methyl-N3-((4-methylthiazol-2-yl)methyl)isophthalamide], with less than 0.3 µM.
For `Cc1csc(CN(C)C(=O)c2cccc(C(=O)N[C@@H](Cc3ccccc3)[C@H](O)CNCc3ccc(C(F)(F)F)nc3)c2)n1` [Compound 7, N1-((2S,3R)-3-hydroxy-1-phenyl-4-((6-(trifluoromethyl)pyridin-3-yl)methylamino)butan-2-yl)-N3-methyl-N3-((4-methylthiazol-2-yl)methyl)isophthalamide], the Ki (20 minutes pre-incubation) was more than 0.501 µM.
Consider `Cc1csc(CN(C)C(=O)c2cccc(C(=O)N[C@@H](Cc3ccccc3)[C@H](O)CNCc3cc(-c4ccncc4)cc(C(F)(F)F)c3)c2)n1` [Compound 275, N1-((2S,3R)-3-hydroxy-1-phenyl-4-(3-(pyridin-4-yl)-5-(trifluoromethyl)benzylamino)butan-2-yl)-N3-methyl-N3-((4-methylthiazol-2-yl)methyl)isophthalamide], for which, where the note is “fluorogenic substrate FS-2”, the Ki was less than 0.3 µM.
Take `Cc1csc(CN(C)C(=O)c2cc(C(=O)N[C@@H](Cc3ccccc3)[C@H](O)CNCc3cncc(C(C)C)c3)cc(-c3ccoc3)c2)n1` [Compound 303, 5-(furan-3-yl)-N1-((2S,3R)-3-hydroxy-4-((5-isopropylpyridin-3-yl)methylamino)-1-phenylbutan-2-yl)-N3-methyl-N3-((4-methylthiazol-2-yl)methyl)isophthalamide]: the Ki (fluorogenic substrate FS-2) was less than 0.3 µM.
For `Cc1csc(CNC(=O)c2cccc(C(=O)N[C@@H](Cc3ccccc3)[C@H](O)CNCc3ccc(CS(C)(=O)=O)c(C)n3)c2)n1` [Compound 101, N1-((2S,3R)-3-hydroxy-4-((6-methyl-5-(methylsulfonylmethyl)pyridin-2-yl)methylamino)-1-phenylbutan-2-yl)-N3-((4-methylthiazol-2-yl)methyl)isophthalamide], the Ki (20 minutes pre-incubation) is more than 0.501 µM.
The same measure, in the same setting: the value for `COc1cccc(CNC[C@@H](O)[C@H](Cc2ccccc2)NC(=O)c2cccc(C(=O)N(C)c3nc(C)cs3)c2)c1` [Compound 84, N1-((2S,3R)-3-hydroxy-4-(3-methoxybenzylamino)-1-phenylbutan-2-yl)-N3-methyl-N3-(4-methylthiazol-2-yl)isophthalamide] was more than 0.501 µM; that for `C[C@@H](NC(=O)c1cc(C(=O)N[C@@H](Cc2ccccc2)[C@H](O)CNCc2cnn(C(C)(C)C)c2)cc(N(C)S(C)(=O)=O)c1)c1ccccc1` [Compound 138, N1-((2S,3R)-4-((1-tert-butyl-1H-pyrazol-4-yl)methylamino)-3-hydroxy-1-phenylbutan-2-yl)-5-(N-methylmethylsulfonamido)-N3-((R)-1-phenylethyl)isophthalamide] was more than 0.501 µM.
In the case of `COc1ccc(C(F)(F)F)cc1CNC[C@@H](O)[C@H](Cc1ccccc1)NC(=O)c1cccc(C(=O)N(C)Cc2nc(C)cs2)c1` [Compound 282, N1-((2S,3R)-3-hydroxy-4-(2-methoxy-5-(trifluoromethyl)benzylamino)-1-phenylbutan-2-yl)-N3-methyl-N3-((4-methylthiazol-2-yl)methyl)isophthalamide], the Ki (fluorogenic substrate FS-2) was more than 0.501 µM.
Take `COc1cccc(CNC[C@@H](O)[C@H](Cc2ccccc2)NC(=O)c2cc(O)cc(C(=O)N(C)Cc3nc(C)cs3)c2)c1` [Compound 38, 5-hydroxy-N1-((2S,3R)-3-hydroxy-4-(3-methoxybenzylamino)-1-phenylbutan-2-yl)-N3-methyl-N3-((4-methylthiazol-2-yl)methyl)isophthalamide]: under “20 minutes pre-incubation”, the Ki was less than 0.3 µM.
Take `Cc1csc(CN(C)C(=O)c2cccc(C(=O)N[C@@H](Cc3ccccc3)[C@H](O)CNCc3cncc(NC(C)C)c3)c2)n1` [Compound 304, N1-((2S,3R)-3-hydroxy-4-((5-(isopropylamino)pyridin-3-yl)methylamino)-1-phenylbutan-2-yl)-N3-methyl-N3-((4-methylthiazol-2-yl)methyl)isophthalamide]: the Ki (fluorogenic substrate FS-2) was less than 0.3 µM.
Turning to `Cc1csc(CN(C)C(=O)c2cccc(C(=O)N[C@@H](Cc3ccccc3)[C@H](O)CNCc3cc(C(C)C)cnc3C)c2)n1` [Compound 153, N1-((2S,3R)-3-hydroxy-4-((5-isopropyl-2-methylpyridin-3-yl)methylamino)-1-phenylbutan-2-yl)-N3-methyl-N3-((4-methylthiazol-2-yl)methyl)isophthalamide], for the setting “20 minutes pre-incubation”, the Ki was less than 0.3 µM.
Still for that read-out and setting: then `Cc1csc(CN(C)C(=O)c2cccc(C(=O)N[C@@H](Cc3ccccc3)[C@H](O)CNCc3cccnc3)c2)n1` [Compound 15, N1-((2S,3R)-3-hydroxy-1-phenyl-4-(pyridin-3-ylmethylamino)butan-2-yl)-N3-methyl-N3-((4-methylthiazol-2-yl)methyl)isophthalamide], with more than 0.501 µM.
On the same count and under the same terms, the value for `COc1cccc(CNC[C@@H](O)[C@H](Cc2ccccc2)NC(=O)c2cccc(C(=O)N(C)Cc3nccc(C)n3)c2)c1` [Compound 136, N1-((2S,3R)-3-hydroxy-4-(3-methoxybenzylamino)-1-phenylbutan-2-yl)-N3-methyl-N3-((4-methylpyrimidin-2-yl)methyl)isophthalamide] was more than 0.501 µM.
The same measure, in the same setting: then `Cc1csc(CN(C)C(=O)c2cccc(C(=O)N[C@@H](Cc3ccccc3)[C@@H](O)CNCc3cncc(C(C)C)c3)c2)n1` [Compound 147, N1-((2S,3S)-3-hydroxy-4-((5-isopropylpyridin-3-yl)methylamino)-1-phenylbutan-2-yl)-N3-methyl-N3-((4-methylthiazol-2-yl)methyl)isophthalamide], with more than 0.501 µM.
Consider `CNc1cc(CNC[C@@H](O)[C@H](Cc2ccccc2)NC(=O)c2cccc(C(=O)N(C)Cc3nc(C)cs3)c2)cc(C(F)(F)F)c1` [Compound 283, N1-((2S,3R)-3-hydroxy-4-(3-(methylamino)-5-(trifluoromethyl)benzylamino)-1-phenylbutan-2-yl)-N3-methyl-N3-((4-methylthiazol-2-yl)methyl)isophthalamide], for which the Ki (fluorogenic substrate FS-2) is less than 0.3 µM.
